Assay results from patent US8987195B2 (priority 2012, dated 2015).
pEC50, pIC50: −log10 of the molar value. Read-outs that look alike come from different tables or passages of the source.

Legend:
[1] = tested on: HCV genotype 1b replicon; experiment: HCV replicon assay, genotype 1b replicon EC50; type: cell-based, Hepatitis C virus; conditions: Hepatitis C virus, HCV replicon, genotype 1b, read-out: EC50 [gt-1b]
Summary of the method: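 Replicon cells (Neo^r, some luciferase:Neo^r fusion); G418 removed at plating; compound dilution series, 24-48 h. Readout: RNA by 32P-probe hybridization/protection or TaqMan, normalized to cyclophilin A RNA, or luciferase. EC50 vs DMSO control, 4-parameter fit.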

[2] = biological target: HCV NS3/4A protease genotype 1b (Hepatitis C virus genotype 1b, UniProt P26663); experiment: HCV NS3/4A protease time-resolved fluorescence (TRF) assay, Ki against genotype 1b; type: biochemical; conditions: IC50 [gt-1b], NS3/4A protease TRF assay, genotype 1b enzyme 0.2 nM
Summary of the method: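 Enzyme 0.2 nM 1b / 0.4 nM A156T / 0.025 nM 3a; 30 min preinc. w/ cpd; 25 nM TRF peptide; 2.5 h RT; ex 340/em 615 time-delayed; 4-param IC50 → Ki = IC50/(1+[S]/KM).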

## COc1ccc2nc(C)c3c(c2n1)[C@H](F)C[C@]1(C[C@H]2C(=O)N[C@]4(C(=O)NS(=O)(=O)C5(C)CC5)C[C@H]4/C=C\CCCCC[C@H](NC(=O)OC(C)(C)C(F)(F)F)C(=O)N2C1)O3 [Example 380, 1,1,1-trifluoro-2-methylpropan-2-yl [(2S,6S,10′R,12Z,13aS,14aR,16aS)-10′-fluoro-2′-methoxy-6′-methyl-14a-{[(1-methylcyclopropyl)sulfonyl]carbamoyl}-5,16-dioxo-1,5,6,7,8,9,9′,10,10′,11,13a,14,14a,15,16,16a-hexadecahydrospiro[cyclopropa[e]pyrrolo[1,2-a][1,4]diazacyclopentadecine-2,8′-pyrano[2,3-c][1,5]naphthyridin]-6-yl]carbamate]
[1]; K+ salt
  pEC50: 8.25
[2]; K+ salt
  pIC50: 10.68

## Cc1nc2cc(F)c(F)cc2c2c1O[C@]1(CC2)C[C@H]2C(=O)N[C@]3(C(=O)NS(=O)(=O)C4(C)CC4)C[C@H]3/C=C\CCCCC[C@H](NC(=O)OC(C)(C)C(F)(F)F)C(=O)N2C1 [Example 381, 1,1,1-trifluoro-2-methylpropan-2-yl [(2R,6S,12Z,13aS,14aR,16aS)-8′,9′-difluoro-5′-methyl-14a-{[(1-methylcyclopropyl)sulfonyl]carbamoyl}-5,16-dioxo-1,1′,2′,5,6,7,8,9,10,11,13a,14,14a,15,16,16a-hexadecahydrospiro[cyclopropa[e]pyrrolo[1,2-a][1,4]diazacyclopentadecine-2,3′-pyrano[2,3-c]quinolin]-6-yl]carbamate]
[1]
  pEC50: 8.17
[2]
  pIC50: 10.40

## CC(C)COC(=O)N[C@H]1CCCCC/C=C\[C@@H]2C[C@@]2(C(=O)NS(=O)(=O)C2(C)CC2)NC(=O)[C@@H]2C[C@]3(CCc4c(c(C(F)(F)F)nc5ccc(Cl)cc45)O3)CN2C1=O [Example 383, 2-methylpropyl [(2R,6S,12Z,13aS,14aR,16aS)-9′-chloro-14a-{[(1-methylcyclopropyl)sulfonyl]carbamoyl}-5,16-dioxo-5′-(trifluoromethyl)-1,1′,2′,5,6,7,8,9,10,11,13a,14,14a,15,16,16a-hexadecahydrospiro[cyclopropa[e]pyrrolo[1,2-a][1,4]diazacyclopentadecine-2,3′-pyrano[2,3-c]quinolin]-6-yl]carbamate]
[1]
  pEC50: 7.42
[2]
  pIC50: 10.62

## CC1(S(=O)(=O)NC(=O)[C@@]23C[C@H]2/C=C\CCCCC[C@H](NC(=O)OC2CCCC2)C(=O)N2C[C@@]4(CCc5c(c(C(F)(F)F)nc6ccc(Cl)cc56)O4)C[C@H]2C(=O)N3)CC1 [Example 384, cyclopentyl [(2R,6S,12Z,13aS,14aR,16aS)-9′-chloro-14a-{[(1-methylcyclopropyl)sulfonyl]carbamoyl}-5,16-dioxo-5′-(trifluoromethyl)-1,1′,2′,5,6,7,8,9,10,11,13a,14,14a,15,16,16a-hexadecahydrospiro[cyclopropa[e]pyrrolo[1,2-a][1,4]diazacyclopentadecine-2,3′-pyrano[2,3-c]quinolin]-6-yl]carbamate]
[1]
  pEC50: 7.70
[2]
  pIC50: 10.64

## CC(C)OC(=O)N[C@H]1CCCCC/C=C\[C@@H]2C[C@@]2(C(=O)NS(=O)(=O)C2(C)CC2)NC(=O)[C@@H]2C[C@]3(CCc4c(c(C(F)(F)F)nc5ccc(Cl)cc45)O3)CN2C1=O [Example 385, propan-2-yl [(2R,6S,12Z,13aS,14aR,16aS)-9′-chloro-14a-{[(1-methylcyclopropyl)sulfonyl]carbamoyl}-5,16-dioxo-5′-(trifluoromethyl)-1,1′,2′,5,6,7,8,9,10,11,13a,14,14a,15,16,16a-hexadecahydrospiro[cyclopropa[e]pyrrolo[1,2-a][1,4]diazacyclopentadecine-2,3′-pyrano[2,3-c]quinolin]-6-yl]carbamate]
[1]
  pEC50: 8.17
[2]
  pIC50: 10.77

## CC(C)(C)COC(=O)N[C@H]1CCCCC/C=C\[C@@H]2C[C@@]2(C(=O)NS(=O)(=O)C2(C)CC2)NC(=O)[C@@H]2C[C@]3(CCc4c(c(C(F)(F)F)nc5ccc(Cl)cc45)O3)CN2C1=O [Example 386, 2,2-dimethylpropyl [(2R,6S,12Z,13aS,14aR,16aS)-9′-chloro-14a-{[(1-methylcyclopropyl)sulfonyl]carbamoyl}-5,16-dioxo-5′-(trifluoromethyl)-1,1′,2′,5,6,7,8,9,10,11,13a,14,14a,15,16,16a-hexadecahydrospiro[cyclopropa[e]pyrrolo[1,2-a][1,4]diazacyclopentadecine-2,3′-pyrano[2,3-c]quinolin]-6-yl]carbamate]
[1]
  pEC50: 7.30
[2]
  pIC50: 10.54

## CC(C)(OC(=O)N[C@H]1CCCCC/C=C\[C@@H]2C[C@@]2(C(=O)NS(=O)(=O)C2(C)CC2)NC(=O)[C@@H]2C[C@]3(CCc4c(c(C(F)(F)F)nc5ccc(Cl)cc45)O3)CN2C1=O)C(F)(F)F [Example 387, 1,1,1-trifluoro-2-methylpropan-2-yl [(2R,6S,12Z,13aS,14aR,16aS)-9′-chloro-14a-{[(1-methylcyclopropyl)sulfonyl]carbamoyl}-5,16-dioxo-5′-(trifluoromethyl)-1,1′,2′,5,6,7,8,9,10,11,13a,14,14a,15,16,16a-hexadecahydrospiro[cyclopropa[e]pyrrolo[1,2-a][1,4]diazacyclopentadecine-2,3′-pyrano[2,3-c]quinolin]-6-yl]carbamate]
[1]
  pEC50: 7.70
[2]
  pIC50: 10.42

## COc1ccc2nc(C(C)C)c3c(c2c1)[C@H](F)C[C@]1(C[C@H]2C(=O)N[C@]4(C(=O)NS(=O)(=O)C5(C)CC5)C[C@H]4/C=C\CCCCC[C@H](NC(=O)OCC(C)(C)C)C(=O)N2C1)O3 [Example 388, 2,2-dimethylpropyl [(1′R,2S,6S,12Z,13aS,14aR,16aS)-1′-fluoro-9′-methoxy-14a-{[(1-methylcyclopropyl)sulfonyl]carbamoyl}-5,16-dioxo-5′-(propan-2-yl)-1,1′,2′,5,6,7,8,9,10,11,13a,14,14a,15,16,16a-hexadecahydrospiro[cyclopropa[e]pyrrolo[1,2-a][1,4]diazacyclopentadecine-2,3′-pyrano[2,3-c]quinolin]-6-yl]carbamate]
[1]
  pEC50: 8.88
[2]
  pIC50: 10.55

## Cc1ccc2nc(C(F)(F)F)c3c(c2c1)CC[C@]1(C[C@H]2C(=O)N[C@]4(C(=O)NS(=O)(=O)C5(C)CC5)C[C@H]4/C=C\CCCCC[C@H](NC(=O)OC(C)(C)C)C(=O)N2C1)O3 [Example 389, tert-butyl [(2R,6S,12Z,13aS,14aR,16aS)-9′-methyl-14a-{[(1-methylcyclopropyl)sulfonyl]carbamoyl}-5,16-dioxo-5′-(trifluoromethyl)-1,1′,2′,5,6,7,8,9,10,11,13a,14,14a,15,16,16a-hexadecahydrospiro[cyclopropa[e]pyrrolo[1,2-a][1,4]diazacyclopentadecine-2,3′-pyrano[2,3-c]quinolin]-6-yl]carbamate]
[1]
  pEC50: 8.58
[2]
  pIC50: 10.96

## Cc1ccc2nc(C(F)(F)F)c3c(c2c1)CC[C@]1(C[C@H]2C(=O)N[C@]4(C(=O)NS(=O)(=O)C5(C)CC5)C[C@H]4/C=C\CCCCC[C@H](NC(=O)OCC(C)C)C(=O)N2C1)O3 [Example 390, 2-methylpropyl [(2R,6S,12Z,13aS,14aR,16aS)-9′-methyl-14a-{[(1-methylcyclopropyl)sulfonyl]carbamoyl}-5,16-dioxo-5′-(trifluoromethyl)-1,1′,2′,5,6,7,8,9,10,11,13a,14,14a,15,16,16a-hexadecahydrospiro[cyclopropa[e]pyrrolo[1,2-a][1,4]diazacyclopentadecine-2,3′-pyrano[2,3-c]quinolin]-6-yl]carbamate]
[1]
  pEC50: 7.81
[2]
  pIC50: 10.82

## [2H]C([2H])(F)Oc1ccc2nc(C)c3c(c2c1)[C@H](F)C[C@]1(C[C@H]2C(=O)N[C@]4(C(=O)NS(=O)(=O)C5(C)CC5)C[C@H]4/C=C\CCCCC[C@H](NC(=O)OCC(C)C)C(=O)N2C1)O3 [Example 402, 2-methylpropyl [(1′R,2S,6S,12Z,13aS,14aR,16aS)-1′-fluoro-9′-{[fluoro(^2H2)methyl]oxy}-5′-methyl-14a-{[(1-methylcyclopropyl)sulfonyl]carbamoyl}-5,16-dioxo-1,1′,2′,5,6,7,8,9,10,11,13a,14,14a,15,16,16a-hexadecahydrospiro[cyclopropa[e]pyrrolo[1,2-a][1,4]diazacyclopentadecine-2,3′-pyrano[2,3-c]quinolin]-6-yl]carbamate]
[1]; K+ salt
  pEC50: 8.64
[2]; K+ salt
  pIC50: 10.96

## [2H]C([2H])(F)Oc1ccc2nc(C)c3c(c2c1)[C@H](F)C[C@]1(C[C@H]2C(=O)N[C@]4(C(=O)NS(=O)(=O)C5(C)CC5)C[C@H]4/C=C\CCCCC[C@H](NC(=O)OCC(C)(C)C)C(=O)N2C1)O3 [Example 403, 2,2-dimethylpropyl [(1′R,2S,6S,12Z,13aS,14aR,16aS)-1′-fluoro-9′-{[fluoro(^2H2)methyl]oxy}-5′-methyl-14a-{[(1-methylcyclopropyl)sulfonyl]carbamoyl}-5,16-dioxo-1,1′,2′,5,6,7,8,9,10,11,13a,14,14a,15,16,16a-hexadecahydrospiro[cyclopropa[e]pyrrolo[1,2-a][1,4]diazacyclopentadecine-2,3′-pyrano[2,3-c]quinolin]-6-yl]carbamate]
[1]; K+ salt
  pEC50: 8.72
[2]; K+ salt
  pIC50: 10.89
